This is an account of results in ChEMBL document CHEMBL1201862, “PubChem BioAssay data set” (2004).

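All cell lines were grown in 96-well plates and treated with compound for 48 hours. Abbreviation: GI50, concentration required for 50% inhibition of growth.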 Active and inactive are the calls of the source. No stated cut-off is given here; in the data, active = GI50 up to about 1.1 µM and inactive = higher.

Among the test systems are A498; ACHN; HCC 2998; HCT-116; HCT-15; K562; KM12; LOX IMVI; Malme-3M; NCI/ADR-RES; OVCAR-4; OVCAR-5; OVCAR-8; SF-268; SF-295; SK-MEL-28; SK-MEL-2; SK-MEL-5; SNB-19; UO-31.
Holding throughout (test): NCI-60 cell line screen, 48 h

On to `CC(=O)O[C@@H]1C[C@@]23C[C@@]24CC[C@H](OC2OCC(O)C(O)C2O)C(C)(C)[C@@H]4CC=C3[C@]2(C)C[C@@H]3OC4(C[C@@H](C)[C@@H]3[C@@]12C)OC(O)[C@@]1(C)O[C@@H]41` (stereo partly specified), for which the GI50 in the assay with A498 was 32.1 µM (inactive); in the assay with ACHN, 43.5 µM (inactive); with HCC 2998, 20.6 µM (inactive); with HCT-116, 19.4 µM (inactive); with HCT-15, 31.6 µM; with K562 it was 23.8 µM (inactive). In addition, the GI50 with KM12 was 33.7 µM (inactive); in the assay with LOX IMVI, 23.4 µM (inactive); in the assay with Malme-3M, 33.2 µM (inactive); in the assay with NCI/ADR-RES, 43.9 µM (inactive); in the assay on OVCAR-4 it was 48.4 µM (inactive); in the assay with OVCAR-5, 47.5 µM (inactive). In addition, the GI50 with OVCAR-8 is 41.7 µM (inactive); with SF-268, 58.7 µM (inactive); with SF-295, 25.7 µM (inactive); in the assay on SK-MEL-28 it was 41.2 µM (inactive); in the assay with SK-MEL-2, 19.7 µM (inactive); in the assay on SK-MEL-5, 19.7 µM (inactive). Moreover, the values for the GI50 in the assay on SNB-19 and in the assay with UO-31 were 75.2 µM (inactive) and 41.8 µM (inactive), respectively.
As for `C=C1C(=O)OC2C1CC(O)/C(C)=C\CCC1(C)OC21` (stereo unspecified), the GI50 in the assay on A498 was 43 µM (inactive); in the assay with ACHN, 39.5 µM (inactive); in the assay with HCC 2998, 35.1 µM (inactive); with HCT-116 it was 29.8 µM (inactive); in the assay with HCT-15 it was 16.3 µM; in the assay on KM12, 32.9 µM (inactive). Also, the GI50 in the assay on LOX IMVI is 27 µM (inactive); in the assay on Malme-3M it was 19.2 µM (inactive); with NCI/ADR-RES, 22.7 µM (inactive); in the assay with OVCAR-4, 25.6 µM (inactive); in the assay on OVCAR-5 it was 23.8 µM (inactive); in the assay on OVCAR-8 it was 33.8 µM (inactive). In addition, the GI50 in the assay with SF-268 is 25.1 µM (inactive); with SF-295, 30.3 µM (inactive); in the assay with SK-MEL-28, 33.3 µM (inactive); with SK-MEL-2 it was 17.5 µM (inactive); in the assay on SK-MEL-5, 21 µM (inactive); with SNB-19 it was 48.1 µM (inactive). Besides, the GI50 with UO-31 was 22.9 µM (inactive).
Take `O=C(NNCc1ccccc1O)c1ccccc1O`: the GI50 with A498 was 31.4 µM (inactive); in the assay with ACHN, 5.12 µM (inactive); with HCC 2998, 4.01 µM (inactive); in the assay on HCT-116, 3.1 µM (inactive); in the assay with HCT-15, 1.19 µM; with K562, 3.3 µM (inactive). In addition, the GI50 in the assay with KM12 was 8.91 µM (inactive); in the assay on LOX IMVI, 3.09 µM (inactive); in the assay on Malme-3M, 15.1 µM (inactive); in the assay on NCI/ADR-RES it was 8.85 µM (inactive); with OVCAR-4, 26 µM (inactive); in the assay with OVCAR-5, 3.59 µM (inactive). The GI50 is 14.4 µM (inactive) with OVCAR-8; 2.51 µM (inactive) in the assay with SF-295; 8.41 µM (inactive) in the assay on SK-MEL-28; 4.65 µM (inactive) in the assay with SK-MEL-2; 3.06 µM (inactive) with SK-MEL-5; 36.6 µM (inactive) with SNB-19. In addition, the GI50 with UO-31 was 1.92 µM (inactive).
Regarding `C/C(=N\NC(=O)c1ccc(Cl)cc1)c1nc2cccnc2[nH]1`, the GI50 is 43.8 µM (inactive) in the assay on A498; 15.7 µM (inactive) with ACHN; > 100 µM (inactive) in the assay on HCC 2998; 32.6 µM (inactive) in the assay with HCT-116; 11.7 µM with HCT-15; 42.6 µM (inactive) in the assay on K562. The GI50 in the assay with KM12 is 24.8 µM (inactive); in the assay on LOX IMVI, 12.2 µM (inactive); in the assay with Malme-3M, 14.2 µM (inactive); in the assay on NCI/ADR-RES it was 20.5 µM (inactive); in the assay on OVCAR-4 it was 18.2 µM (inactive); in the assay on OVCAR-5, > 100 µM (inactive). The GI50 is 15.5 µM (inactive) in the assay with OVCAR-8; 17.1 µM (inactive) with SF-268; 45.8 µM (inactive) with SF-295; 27 µM (inactive) with SK-MEL-28; 28.4 µM (inactive) with SK-MEL-2; 15.8 µM (inactive) in the assay on SK-MEL-5. Also, the GI50 in the assay with SNB-19 is 18.9 µM (inactive); with UO-31, 26.7 µM (inactive).
For `CC(=O)OCC1OC(Oc2cc(C)c(O)cc2C/C=C(\C)CC/C=C(\C)C[C@@H](C=C(C)C)OC(C)=O)C(O)C(OC(C)=O)C1OC(C)=O` (stereo partly specified), the GI50 with A498 was 15.2 µM (inactive); with ACHN, 20 µM (inactive); with HCC 2998, 16.9 µM (inactive); in the assay on HCT-116 it was 23.2 µM (inactive); in the assay on HCT-15, 16.3 µM; in the assay on K562, 11.6 µM (inactive). The GI50 was 15.7 µM (inactive) in the assay on KM12; 13.9 µM (inactive) in the assay on LOX IMVI; > 50 µM (inactive) in the assay on Malme-3M; 16.8 µM (inactive) in the assay with NCI/ADR-RES; 23.6 µM (inactive) in the assay on OVCAR-4; > 50 µM (inactive) in the assay with OVCAR-5. The GI50 with OVCAR-8 was 16.1 µM (inactive); in the assay with SF-268 it was 28.2 µM (inactive); with SF-295 it was 22.2 µM (inactive); with SK-MEL-28, 44.5 µM (inactive); in the assay on SK-MEL-2, 19.9 µM (inactive); in the assay on SK-MEL-5, 9.14 µM (inactive). Moreover, the figures for the GI50 with SNB-19 and in the assay on UO-31 were > 50 µM (inactive) and 18 µM (inactive), respectively.
As to `C=C[C@]1(O)CCC[C@]2(C)C(=O)CCC12C` (stereo partly specified), the GI50 in the assay on A498 was > 100 µM (inactive); with ACHN, > 100 µM (inactive); with HCC 2998 it was > 100 µM (inactive); in the assay on HCT-116 it was > 100 µM (inactive); in the assay with HCT-15, greater than 100 µM; in the assay with K562, > 100 µM (inactive). The GI50 in the assay with KM12, with LOX IMVI, in the assay with Malme-3M, in the assay on NCI/ADR-RES, in the assay on OVCAR-4 and in the assay with OVCAR-5 was > 100 µM (inactive) throughout. Besides, the GI50 in the assay on OVCAR-8, in the assay on SF-268, with SF-295, in the assay with SK-MEL-28, in the assay on SK-MEL-2 and in the assay on SK-MEL-5 was > 100 µM (inactive) in each case. Besides, the GI50 in the assay on SNB-19 and in the assay on UO-31 was > 100 µM (inactive) throughout.
Turning to `Cc1cc(CN2CCCCC2)c(O)c(CN2CCCCC2)c1`, the GI50 in the assay with A498 is > 100 µM (inactive); in the assay with ACHN, > 100 µM (inactive); with HCC 2998, > 100 µM (inactive); with HCT-116 it was > 100 µM (inactive); with HCT-15, greater than 100 µM; in the assay with K562 it was > 100 µM (inactive). Besides, the GI50 in the assay with KM12, with LOX IMVI, in the assay on Malme-3M, in the assay with NCI/ADR-RES, in the assay on OVCAR-4 and in the assay with OVCAR-5 was > 100 µM (inactive) each time. Also, the GI50 with OVCAR-8, in the assay on SF-268, in the assay with SF-295, in the assay with SK-MEL-28, in the assay on SK-MEL-2 and in the assay on SK-MEL-5 was > 100 µM (inactive) in each case. For the same compound, the GI50 in the assay with SNB-19 and in the assay with UO-31 was > 100 µM (inactive) throughout.
Regarding `N#Cc1nsnc1-c1nc(-c2nsnc2C#N)nc(-c2nsnc2C#N)n1`, the GI50 in the assay with A498 was > 100 µM (inactive); with ACHN, > 100 µM (inactive); with HCC 2998, > 100 µM (inactive); in the assay with HCT-116 it was > 100 µM (inactive); with HCT-15, greater than 100 µM; in the assay on K562, > 100 µM (inactive). The GI50 in the assay with KM12 is 96.2 µM (inactive); with LOX IMVI, > 100 µM (inactive); with Malme-3M, > 100 µM (inactive); in the assay with NCI/ADR-RES, > 100 µM (inactive); with OVCAR-4, > 100 µM (inactive); in the assay on OVCAR-5, > 100 µM (inactive). In addition, the GI50 in the assay with OVCAR-8, with SF-268, with SF-295, in the assay with SK-MEL-28, with SK-MEL-2 and in the assay with SK-MEL-5 was > 100 µM (inactive) throughout. For the same compound, the GI50 in the assay on SNB-19 and in the assay with UO-31 was > 100 µM (inactive) each time.
With `Cc1nc2cc3ccccc3cc2[nH]c1=O`, the GI50 is 19.8 µM (inactive) with A498; > 100 µM (inactive) with HCC 2998; > 100 µM (inactive) with HCT-116; 82 µM in the assay on HCT-15; 38.8 µM (inactive) with K562; 85.1 µM (inactive) in the assay with KM12. The GI50 in the assay with LOX IMVI was > 100 µM (inactive); in the assay with Malme-3M, > 100 µM (inactive); with NCI/ADR-RES, 77.3 µM (inactive); in the assay with OVCAR-4, 51.1 µM (inactive); with OVCAR-5 it was > 100 µM (inactive); in the assay on OVCAR-8, 70.5 µM (inactive). Also, the GI50 was 39.3 µM (inactive) in the assay on SF-268; 91.2 µM (inactive) in the assay on SF-295; > 100 µM (inactive) in the assay with SK-MEL-28; > 100 µM (inactive) in the assay on SK-MEL-2; 96.2 µM (inactive) in the assay on SK-MEL-5; 92.3 µM (inactive) in the assay on SNB-19. Also, the GI50 with UO-31 is 54.8 µM (inactive).
On to `Cc1[nH]n(-c2ccccc2)c(=O)c1C(N(CCc1ccccc1)C1=NCC(C)S1)(C(F)(F)F)C(F)(F)F` (stereo unspecified), for which the GI50 in the assay with A498 was 11.9 µM (inactive); with ACHN, 16.2 µM (inactive); in the assay with HCC 2998, 13.4 µM (inactive); in the assay with HCT-116, 10.1 µM (inactive); in the assay on HCT-15, 13.3 µM; with K562, 15.2 µM (inactive). For the same compound, the GI50 in the assay with KM12 is 13.1 µM (inactive); in the assay on LOX IMVI, 0.164 µM (active); with Malme-3M, 11.1 µM (inactive); with NCI/ADR-RES it was 18.9 µM (inactive); with OVCAR-4 it was 10.8 µM (inactive); with OVCAR-5 it was 8.65 µM (inactive). For the same compound, the GI50 in the assay with SF-268 is 21.4 µM (inactive); with SF-295, 9.02 µM (inactive); in the assay on SK-MEL-28, 16.4 µM (inactive); in the assay with SK-MEL-2 it was 8.51 µM (inactive); in the assay on SK-MEL-5 it was 7.71 µM (inactive); in the assay with SNB-19 it was 15.5 µM (inactive). In addition, in the assay on UO-31, the GI50 was 10.4 µM (inactive).
